# Laboratory results taken from PubChem BioAssay (NCI).
#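 Cultured in 96-well plates, cells were exposed to test compound for 48 hours across five concentrations. The concentration for 50% growth inhibition is given as GI50. The concentration for full growth arrest is given as TGI.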
# Legend:
# Experiment in all cases: NCI tumour cell line growth inhibition, 48 h
# SW-620 colon = system: SW-620 colon
# LOX IMVI melanoma = system: LOX IMVI melanoma
# CAKI-1 renal = system: CAKI-1 renal
# M14 melanoma = system: M14 melanoma
# SF-539 CNS = system: SF-539 CNS
# IGROV1 ovarian = system: IGROV1 ovarian
# UACC-62 melanoma = system: UACC-62 melanoma
# MALME-3M melanoma = system: MALME-3M melanoma
# NCI-H460 lung = system: NCI-H460 lung
# SF-268 CNS = system: SF-268 CNS
# HT29 colon = system: HT29 colon
# OVCAR-5 ovarian = system: OVCAR-5 ovarian
# PC-3 prostate = system: PC-3 prostate
# MOLT-4 leukemia = system: MOLT-4 leukemia
# DU-145 prostate = system: DU-145 prostate
# UO-31 renal = system: UO-31 renal
# MDA-MB-435 = system: MDA-MB-435
# EKVX NSCLC = system: EKVX NSCLC
# U251 CNS = system: U251 CNS
# HL-60(TB) leukemia = system: HL-60(TB) leukemia
# NCI-H226 lung = system: NCI-H226 lung
# HOP-92 NSCLC = system: HOP-92 NSCLC
# NCI-H522 lung = system: NCI-H522 lung
# HOP-62 NSCLC = system: HOP-62 NSCLC
# A498 renal = system: A498 renal
# NCI/ADR-RES ovarian = system: NCI/ADR-RES ovarian
# SK-MEL-2 melanoma = system: SK-MEL-2 melanoma
# RPMI-8226 leukemia = system: RPMI-8226 leukemia
# HCC-2998 colon = system: HCC-2998 colon
# T-47D breast = system: T-47D breast
# RXF 393 renal = system: RXF 393 renal
# CCRF-CEM leukemia = system: CCRF-CEM leukemia
# SN12C renal = system: SN12C renal
# SK-MEL-5 melanoma = system: SK-MEL-5 melanoma
# HCT-15 colon = system: HCT-15 colon
# MCF7 breast = system: MCF7 breast
# OVCAR-4 ovarian = system: OVCAR-4 ovarian
# HS 578T breast = system: HS 578T breast
# TK-10 renal = system: TK-10 renal
# 786-0 renal = system: 786-0 renal
# A549 NSCLC = system: A549 NSCLC
# OVCAR-3 ovarian = system: OVCAR-3 ovarian
# SK-OV-3 ovarian = system: SK-OV-3 ovarian
# ACHN renal = system: ACHN renal
# K-562 leukemia = system: K-562 leukemia
# BT-549 breast = system: BT-549 breast
# OVCAR-8 ovarian = system: OVCAR-8 ovarian
# SR leukemia = system: SR leukemia
# NCI-H23 lung = system: NCI-H23 lung
# UACC-257 melanoma = system: UACC-257 melanoma
# COLO 205 colon = system: COLO 205 colon
# SK-MEL-28 melanoma = system: SK-MEL-28 melanoma
# SNB-75 CNS = system: SNB-75 CNS
# SNB-19 CNS = system: SNB-19 CNS
# KM12 colon = system: KM12 colon
# SF-295 CNS = system: SF-295 CNS
# MDA-MB-231 breast = system: MDA-MB-231 breast
# HCT-116 colon = system: HCT-116 colon
compound,measurement,setting,value
CC1(C)[C@@H](OC(N)=O)C=C[C@]2(C=O)[C@H]3CC[C@]4(C)[C@@H](c5ccc(=O)oc5)[C@@H](Cl)C[C@]4(O)C3=CC[C@@H]12,GI50,SW-620 colon,5.61 nM
same,TGI,SW-620 colon,13 nM
same,GI50,LOX IMVI melanoma,4.6 nM
same,TGI,LOX IMVI melanoma,8.85 nM
same,GI50,CAKI-1 renal,4.46 nM
same,TGI,CAKI-1 renal,8.46 nM
same,GI50,M14 melanoma,5.44 nM
same,TGI,M14 melanoma,12.4 nM
same,GI50,SF-539 CNS,4.42 nM
same,TGI,SF-539 CNS,8.48 nM
same,GI50,IGROV1 ovarian,7.61 nM
same,TGI,IGROV1 ovarian,24.4 nM
same,GI50,UACC-62 melanoma,4.91 nM
same,TGI,UACC-62 melanoma,10.5 nM
same,GI50,MALME-3M melanoma,5.25 nM
same,TGI,MALME-3M melanoma,10.9 nM
same,GI50,NCI-H460 lung,< 2.5 nM
same,TGI,NCI-H460 lung,4.8 nM
same,GI50,SF-268 CNS,3.01 nM
same,TGI,SF-268 CNS,6.21 nM
same,GI50,HT29 colon,5.21 nM
same,TGI,HT29 colon,11 nM
same,GI50,OVCAR-5 ovarian,5.81 nM
same,TGI,OVCAR-5 ovarian,13.5 nM
same,GI50,PC-3 prostate,5.17 nM
same,TGI,PC-3 prostate,14.8 nM
same,GI50,MOLT-4 leukemia,< 2.5 nM
same,TGI,MOLT-4 leukemia,7.24 nM
same,GI50,DU-145 prostate,4.1 nM
same,TGI,DU-145 prostate,7.85 nM
same,GI50,UO-31 renal,5.24 nM
same,TGI,UO-31 renal,12.4 nM
same,GI50,MDA-MB-435,6 nM
same,TGI,MDA-MB-435,14.1 nM
same,GI50,EKVX NSCLC,4.15 nM
same,TGI,EKVX NSCLC,10.2 nM
same,GI50,U251 CNS,4.51 nM
same,TGI,U251 CNS,8.54 nM
same,GI50,HL-60(TB) leukemia,5.58 nM
same,TGI,HL-60(TB) leukemia,12.1 nM
same,GI50,NCI-H226 lung,4.33 nM
same,TGI,NCI-H226 lung,8.29 nM
same,GI50,HOP-92 NSCLC,5.7 nM
same,TGI,HOP-92 NSCLC,16.5 nM
same,GI50,NCI-H522 lung,< 2.5 nM
same,TGI,NCI-H522 lung,5.73 nM
same,GI50,HOP-62 NSCLC,3.31 nM
same,TGI,HOP-62 NSCLC,6.99 nM
same,GI50,A498 renal,5.94 nM
same,TGI,A498 renal,17.7 nM
same,GI50,NCI/ADR-RES ovarian,6.09 nM
same,TGI,NCI/ADR-RES ovarian,16.7 nM
same,GI50,SK-MEL-2 melanoma,6.79 nM
same,TGI,SK-MEL-2 melanoma,17.3 nM
same,GI50,RPMI-8226 leukemia,7.19 nM
same,TGI,RPMI-8226 leukemia,23 nM
same,GI50,HCC-2998 colon,8.1 nM
same,TGI,HCC-2998 colon,30.4 nM
same,GI50,T-47D breast,6.35 nM
same,TGI,T-47D breast,17.5 nM
same,GI50,RXF 393 renal,5.61 nM
same,TGI,RXF 393 renal,15.7 nM
same,GI50,CCRF-CEM leukemia,3.84 nM
same,TGI,CCRF-CEM leukemia,11.7 nM
same,GI50,SN12C renal,2.93 nM
same,TGI,SN12C renal,13.6 nM
same,GI50,SK-MEL-5 melanoma,4.58 nM
same,TGI,SK-MEL-5 melanoma,9.03 nM
same,GI50,HCT-15 colon,5.55 nM
same,TGI,HCT-15 colon,12.9 nM
same,GI50,MCF7 breast,6.88 nM
same,TGI,MCF7 breast,28.7 nM
same,GI50,OVCAR-4 ovarian,4 nM
same,TGI,OVCAR-4 ovarian,12.1 nM
same,GI50,HS 578T breast,< 2.5 nM
same,TGI,HS 578T breast,14.6 nM
same,GI50,TK-10 renal,5.27 nM
same,TGI,TK-10 renal,15.7 nM
same,GI50,786-0 renal,4.78 nM
same,TGI,786-0 renal,10.6 nM
same,GI50,A549 NSCLC,3.61 nM
same,TGI,A549 NSCLC,7.52 nM
same,GI50,OVCAR-3 ovarian,3.29 nM
same,TGI,OVCAR-3 ovarian,8.28 nM
same,GI50,SK-OV-3 ovarian,6.53 nM
same,TGI,SK-OV-3 ovarian,19.4 nM
same,GI50,ACHN renal,< 2.5 nM
same,TGI,ACHN renal,6.49 nM
same,GI50,K-562 leukemia,6.68 nM
same,TGI,K-562 leukemia,19.7 nM
same,GI50,BT-549 breast,4.91 nM
same,TGI,BT-549 breast,10.6 nM
same,GI50,OVCAR-8 ovarian,5.17 nM
same,TGI,OVCAR-8 ovarian,12.3 nM
same,GI50,SR leukemia,5.66 nM
same,TGI,SR leukemia,15.4 nM
same,GI50,NCI-H23 lung,2.98 nM
same,TGI,NCI-H23 lung,10.2 nM
same,GI50,UACC-257 melanoma,5.65 nM
same,TGI,UACC-257 melanoma,14.1 nM
same,GI50,COLO 205 colon,6.85 nM
same,TGI,COLO 205 colon,17.8 nM
same,GI50,SK-MEL-28 melanoma,6.42 nM
same,TGI,SK-MEL-28 melanoma,15.6 nM
same,GI50,SNB-75 CNS,4.07 nM
same,TGI,SNB-75 CNS,9.32 nM
same,GI50,SNB-19 CNS,7.82 nM
same,TGI,SNB-19 CNS,25.3 nM
same,GI50,KM12 colon,7.43 nM
same,TGI,KM12 colon,23.8 nM
same,GI50,SF-295 CNS,5.02 nM
same,TGI,SF-295 CNS,11.1 nM
same,GI50,MDA-MB-231 breast,8.99 nM
same,TGI,MDA-MB-231 breast,49.2 nM
same,GI50,HCT-116 colon,4.09 nM
same,TGI,HCT-116 colon,8.18 nM
